{
  "source": "patent US9587220B2",
  "about": "“Method for inducing cardiac differentiation of pluripotent stem cell” (Kyoto University, priority 2012, dated 2017)",
  "key": {"[1]": {"tested_on": "IMR90-1 hiPSCs", "assay": "Immunostaining of cardiac, pacemaker and fibroblast markers in differentiated hiPSCs", "assay_type": "cell-based, human", "protocol": "Confluent hESCs and hiPSCs were gently detached with CTK solution and transferred into Petri dishes (BD Biosciences) with Primate ES Cell Culture Medium (ReproCELL, Japan). Cells were held in suspension culture for 8-24 h to form aggregates. The sizes of hPSC aggregates (0.3-1 mm in diameter) are important for efficient differentiation. Following suspension culture, cell aggregates were attached to culture dishes (3-10×10^5 cells cm^−2) in cardiac differentiation medium: IMDM (Sigma), containing 20% FBS (Gibco), 1% MEM non-essential amino acid solution (Sigma), 1% Penicillin-Streptomycin (Gibco), 2 mM L-glutamine (Sigma), 0.001% 2-Mercaptoethanol (Gibco), and 0.005N NaOH, with 10 ng ml^−1 BMP4 (R&D Systems). The medium was changed to cardiac differentiation medium with 10 μM KY02111 and/or other WNT inhibitors added on Day 3 (hiPSC lines) or Day 4 (human or monkey ESC lines); XAV939 (Wako, Japan), IWP-2 (Santa Cruz Biotechnology), IWR-1 (Merck4Bioscience), IGFBP4 (R&D Systems), Dkk1 (R&D Systems) and the mixture of bFGF (R&D Systems), BMP4 (R&D Systems), VEGF (R&D Systems), DKK1 (R&D Systems), and Activin A (R&D Systems) (Non-patent literature 16). Medium was changed every 2-3 d. KY02111 and other WNT inhibitors were added until Day 9 for hiPSC lines and the monkey ESC line, or Day 14 for hESC lines. On Day 15, cardiac cell colonies on dishes were incubated with protease solution (0.1% collagenase type I, 0.25% trypsin, 1 U ml^−1 DNase I, 116 mM NaCl, 20 mM HEPES, 12.5 mM NaH2PO4, 5.6 mM glucose, 5.4 mM KCl, and 0.8 mM MgSO4, pH 7.35) for 0.5-2 h, until all cardiac colonies were detached from the bottom of the wells. The detached cardiac colonies were transferred into 15 ml tubes with fresh cardiac differentiation medium and precipitated by gravity, and the supernatant was removed by aspiration. The cardiac colonies were then transferred into Ultra-low culture dishes (Corning, 3261) or 6-well plates (Corning, YO-01835-24) in cardiac differentiation medium without both serum and NaOH. The floating cardiac colonies were maintained for more than 1 month, and the media were changed every 5 d. A differentiation method of mouse ESC (R1 line) was carried out as previously described^46, and KY02111 was added during Days 3-6. Beating colonies were counted on Day 9.\nCardiac colonies were dissociated by stirring for 1-2 h at 37° C. with the protease solution described above, cultured for 1 d on cover glasses coated with gelatin (Sigma), and fixed with 4% paraformaldehyde. After permeabilizing with Triton X, the cells were treated with 2% skim milk for 1-2 h, then incubated with primary antibodies for 2 h: NKX2.5 (rabbit polyclonal, 1:250; Abcam), αActinin (mouse monoclonal, 1:800; Sigma), cardiac TnT (mouse monoclonal, 1:100; Santa Cruz Biotechnology), Vimentin (mouse monoclonal, 1:800; Sigma V6630), and HCN4 (mouse monoclonal, 1:400; Abcam). The secondary antibodies used were Alexa546-conjugated anti-mouse IgG, Alexa488-conjugated anti-mouse IgG, and Alexa488-conjugated anti-rabbit IgG (1:1000; all from Molecular Probes, Invitrogen). Nuclei were visualized by DAPI. Images were captured under fluorescent microscopy (Olympus). The number of cTnT, αActinin, NKX2.5, HCN4, and Vimentin-positive cells were counted from three random areas, using the Metamorph imaging system (Molecular Devices). […] Cells were analyzed using a FACS CantoII flow cytometer (BD Biosciences). Data was analyzed using FACADiva software (BD Biosciences)."}, "[2]": {"tested_on": "IMR90-1 hiPSCs", "assay": "Cardiac differentiation with BIO and CHIR99021 (Days 0-3) followed by WNT inhibitors, serum-free or serum medium", "assay_type": "cell-based, human", "protocol": "After pre-culture in Petri dishes as described above, cell aggregates were attached to culture dishes coated with gelatin (Sigma G2625) or human laminin 211 (BioLamina, Sweden) at 3-10×10^5 cells cm^-2, in serum-free cardiac differentiation medium: IMDM (Sigma) containing 1% MEM non-essential amino acid solution (Sigma), 1% Penicillin-Streptomycin (Gibco), 2 mM L-glutamine (Sigma), 0.5 mM L-carnitine (Sigma), 0.001% 2-Mercapcoethanol (Gibco), and 1-2% bovine serum albumin (Wako, Japan) or 0.4% human serum albumin (Sigma), with 5 μM CHIR99021 (Axon) and 2 μM BIO (Calbiochem). On Days 3-9, 10 μM KY02111 and/or other WNT inhibitors (XAV939 and/or IWP-2) were added to cell cultures, and the medium was changed every 2 d. On Day 15, the cardiac colonies were incubated with the protease solution for 5-10 min, until all colonies were detached from the bottom of the wells. The cardiac colonies were transferred into 15 ml tubes with cardiac differentiation medium including 0.1% albumin, and precipitated by gravity, the supernatant was removed, and the cardiac colonies were transferred to Ultra-low culture 6-well plates (Corning, YO-01835-24) with cardiac differentiation medium including 0.1% albumin. The floating cardiac colonies were maintained for more than 1 month, and the media were changed every 5 d. Cardiac colonies were dissociated by stirring for 1-2 h at 37° C. with the protease solution described above, cultured for 1 d on cover glasses coated with gelatin (Sigma), and fixed with 4% paraformaldehyde. After permeabilizing with Triton X, the cells were treated with 2% skim milk for 1-2 h, then incubated with primary antibodies for 2 h: NKX2.5 (rabbit polyclonal, 1:250; Abcam), αActinin (mouse monoclonal, 1:800; Sigma), cardiac TnT (mouse monoclonal, 1:100; Santa Cruz Biotechnology), Vimentin (mouse monoclonal, 1:800; Sigma V6630), and HCN4 (mouse monoclonal, 1:400; Abcam). The secondary antibodies used were Alexa546-conjugated anti-mouse IgG, Alexa488-conjugated anti-mouse IgG, and Alexa488-conjugated anti-rabbit IgG (1:1000; all from Molecular Probes, Invitrogen). Nuclei were visualized by DAPI. Images were captured under fluorescent microscopy (Olympus). The number of cTnT, αActinin, NKX2.5, HCN4, and Vimentin-positive cells were counted from three random areas, using the Metamorph imaging system (Molecular Devices). Approximately 1000 DAPI-stained cells were used to calculate the proportion of immunopositive cells (the number of immunopositive cells divided by the number of DAPI-stained cells). […] Cells were analyzed using a FACS CantoII flow cytometer (BD Biosciences). Data was analyzed using […] software (BD Biosciences)."}},
  "data": [
    {"smiles": "COc1ccc(CCC(=O)Nc2nc3ccc(Cl)cc3s2)cc1OC", "note": "[KY02111, 2-(3-(3,4-dimethoxyphenyl)propanamide)-6-chlorobenzothiazole]", "values": [
      {"measurement": "SMA (smooth muscle marker) expression", "setting": "[1]; data not shown", "value": "almost undetectable"},
      {"measurement": "Vimentin-positive ratio", "setting": "[1]; serum-containing medium", "value": 20, "unit": "%"},
      {"measurement": "cells positive for pacemaker marker HCN4", "setting": "[1]; serum-containing medium", "value": 16, "unit": "%"},
      {"measurement": "cTnT-positive cells", "setting": "[1]; serum-containing medium, FIG. 10b", "value": "approximately 80%"},
      {"measurement": "decrease of ratio of Vimentin-positive cells (fibroblasts)", "setting": "[1]; versus DMSO", "value": 3.3, "unit": "fold"},
      {"measurement": "number of beating colonies and total number of cardiomyocytes, defined medium (Alb) versus serum-containing medium (FBS)", "setting": "[2]; FIG. 4e", "value": "increased more in defined medium (Alb)"},
      {"measurement": "proportion of cTnT-positive cells by immunostaining", "setting": "[2]; albumin (serum-free)", "value": "93.3%±4.4"},
      {"measurement": "differentiation efficiency (cTnT-positive cells) by FACS", "setting": "[2]; cytokine- and serum-free conditions", "value": 90.2, "unit": "%"},
      {"measurement": "differentiation efficiency (cTnT-positive cells)", "setting": "[2]; with serum (FBS)", "value": "83.7%±8.0"}
    ]}
  ]
}
